Measurements as given in patent US20240209027A1, “PEPTIDE AND PEPTIDE-CONTAINING COMPOSITION” (PeptiAID Inc.,, priority 2021, published 2024).
Read-outs that look alike come from different tables or passages of the source. Starred links: 1 amine or outer side, 2 acyl side, 3 side chain; linkers in the order of their positions; H or OH if unused. Positions of bridges follow the written chain, without caps; N, C: chain ends. Non-standard residues stand in square brackets, D forms with d. Residues, ends and D or L forms follow the SMILES beside them. *: point of attachment. Ala(piperidin-4-yl) = O=C([C@H](CC1CCN([*:3])CC1)N[*:1])[*:2]; Phe(4-COOH) = N[C@@H](Cc1ccc(C(=O)O)cc1)C(=O)O; Phe(4-F) = N[C@@H](Cc1ccc(F)cc1)C(=O)O; C12 diacid = O=C(O)CCCCCCCCCCC(=O)*; NMeE = CN[C@@H](CCC(=O)O)C(=O)O; Cha = N[C@@H](CC1CCCCC1)C(=O)O; Cit = NC(=O)NCCC[C@H](N)C(=O)O; NMeNle = CCCC[C@H](NC)C(=O)O; PEG2 = NCCOCCOCCC(=O)O; Aib = CC(C)(N)C(=O)O

Tests used:
[1] = molecular target: SARS-CoV-2-derived S protein, Wuhan strain (Severe acute respiratory syndrome coronavirus 2, UniProt P0DTC2); assay type: cell-based
[2] = system: SARS-CoV-2 (JPN/TY/WK-521 strain); assay type: cell-based; design: key: the case where the peptide was found to have anti-SARS-CoV-2 activity when added at 50 nM was designated as “2”; the case where no activity was found upon the addition at 50 nM but the activity was found at 1 μM was designated as “1”; conditions: peptide added at 50 nM or 1 μM
in vitro = conditions: African green monkey
[3] = system: SARS-CoV2 (USA WA1/2020 strain); conditions: 72 h
[4] = system: SARS-CoV-2 mouse subculture strain QHmusX; assay type: in vivo, BALB/c mice; conditions: for lung histology (HE staining): day 10; for weight loss / respiratory symptoms: mouse, in vivo
[5] = molecular target: spike protein of SARS-CoV-2 (GENE Accession No. YP 009724390) (Severe acute respiratory syndrome coronavirus 2, UniProt P0DTC2); test: Screening for target protein-binding peptides
Excerpt: First, the spike protein of SARS-CoV-2 (GENE Accession No. YP 009724390) was set to a target and the screening method described in International Publication WO2014/119600, International Publication WO2012/033154, or International Publication WO 2007/066627 was used to discover the target protein-binding peptides.

[6] = system: SARS-CoV-2 (USA WA1/2020 strain); assay type: in vivo, Golden Syrian hamsters; conditions: for Chronic active inflammation (anterior lobe): Mild / Chronic active inflammation (anterior lobe): Moderate / Chronic active inflammation (anterior lobe): Severe / Chronic active inflammation (posterior lobe): Mild / Chronic active inflammation (posterior lobe): Minor / Chronic active inflammation (posterior lobe): Moderate / Chronic active inflammation (posterior lobe): Severe: cases; for Gross findings of the lung: Mottled fading (number of animals) / Gross findings of the lung: No change (number of animals): 6 animals

CCCC[C@H]1C(=O)NC(C)(C)C(=O)N[C@@H](CC2CCCCC2)C(=O)N[C@@H](Cc2ccc(F)cc2)C(=O)NC(C)(C)C(=O)N[C@@H](Cc2ccc(O)cc2)C(=O)N[C@@H](Cc2ccc(O)cc2)C(=O)N[C@@H](Cc2ccc(C(=O)O)cc2)C(=O)N[C@@H](CC2CCNCC2)C(=O)N[C@@H](CC2CCCCC2)C(=O)N[C@H](C(=O)N[C@H](CCC(=O)O)C(N)=O)CSCC(=O)N(C)[C@@H](CCC(=O)O)C(=O)N1C [Peptide 5555_p020] ({CH2CO}-[NMeE][NMeNle][Aib][Cha][Phe(4-F)][Aib]YY[Phe(4-COOH)][Ala(piperidin-4-yl)][Cha]C[dE]-NH2; thioether N-12)
Imax: % (at 500 nM) [1]: 99% | Anti-SARS-CoV-2 activity [2]: 2 | CC50 at 72 h (in vitro): > 1000 nM | IC50 [3]: 2.3 nM | lung histology (HE staining) ([4]; 10 mg administration group): mild aggregation of lymphocytes (*) was observed around blood vessels near the bronchioles in some lung lobes | weight loss / respiratory symptoms [4]: no findings suggestive of weight loss or respiratory symptoms were observed

C[C@H]1C(=O)N(C)[C@@H](Cc2ccccc2)C(=O)N[C@@H](CO)C(=O)N[C@@H](CC2CCCCC2)C(=O)N[C@@H](Cc2ccc(O)cc2)C(=O)N[C@@H](CO)C(=O)N[C@@H](Cc2ccc(O)cc2)C(=O)N[C@@H](Cc2ccc(O)cc2)C(=O)N[C@@H](CCCNC(=N)N)C(=O)N[C@@H](CCCNC(=N)N)C(=O)N[C@@H](CC2CCCCC2)C(=O)N[C@H](C(=O)N[C@H](CCC(=O)O)C(N)=O)CSCC(=O)N1C [Peptide 5555_p000, MeA-MeF-S-Cha-Y-S-Y-Y-R-R-Cha-C]
binding to the spike protein of SARS-CoV-2 [5]: binds to the spike protein of SARS-CoV-2 | Imax: % (at 500 nM) [1]: 100% | Anti-SARS-CoV-2 activity [2]: 2 | CC50 at 72 h (in vitro): > 1000 nM | IC50 [3]: 23.9 nM

CCCC[C@H]1C(=O)NC(C)(C)C(=O)N[C@@H](CC2CCCCC2)C(=O)N[C@@H](Cc2ccc(F)cc2)C(=O)N[C@H](CC(=O)O)C(=O)N[C@@H](Cc2ccc(O)cc2)C(=O)N[C@@H](Cc2ccc(O)cc2)C(=O)N[C@@H](CCCNC(N)=O)C(=O)N[C@H](CCCCN)C(=O)N[C@@H](CC2CCCCC2)C(=O)N[C@H](C(=O)N[C@H](CCC(=O)O)C(=O)O)CSCC(=O)N(C)[C@@H](CCC(=O)O)C(=O)N1C [Peptide 5555_p028] ({CH2CO}-[NMeE][NMeNle][Aib][Cha][Phe(4-F)][dD]YY[Cit][dK][Cha]C[dE]-OH; thioether N-12)
Chronic active inflammation (anterior lobe): Mild ([6]; 1 mg/kg (n = 6)): 5 | Chronic active inflammation (anterior lobe): Moderate ([6]; 1 mg/kg (n = 6)): 1 | Chronic active inflammation (anterior lobe): Severe ([6]; 1 mg/kg (n = 6)): 0 | Chronic active inflammation (posterior lobe): Mild ([6]; 1 mg/kg (n = 6)): 5 | Chronic active inflammation (posterior lobe): Minor ([6]; 1 mg/kg (n = 6)): 0 | Chronic active inflammation (posterior lobe): Moderate ([6]; 1 mg/kg (n = 6)): 1 | Chronic active inflammation (posterior lobe): Severe ([6]; 1 mg/kg (n = 6)): 0 | body weight, Mean ([6]; 1 mg/kg i.p., Day 0): 126.75 | body weight, Mean ([6]; 1 mg/kg i.p., Day 1): 124.03 | body weight, Mean ([6]; 1 mg/kg i.p., Day 2): 122.3 | body weight, Mean ([6]; 1 mg/kg i.p., Day 3): 120.17 | body weight, Mean ([6]; 1 mg/kg i.p., Day 4): 120.33 | body weight, Mean ([6]; 1 mg/kg i.p., Day 5): 120.75 | body weight, Mean ([6]; 1 mg/kg i.p., Day −6): 118.63 | Gross findings of the lung: Mottled fading (number of animals) ([6]; 1 mg/kg): 6 number of animals | Gross findings of the lung: No change (number of animals) ([6]; 1 mg/kg): 0 number of animals | SARS-CoV-2 genome copy number in lung (RT-qPCR), Log10 of Geometric mean (copy number/gram) ([6]; 1 mg/kg, Day 5): 8.15 copy number/gram | SARS-CoV-2 genome copy number in lung vs solvent control ([6]; 5 mg/kg): statistically significant decrease | Chronic active inflammation (anterior lobe): Mild ([6]; 5 mg/kg (n = 6)): 1 | Chronic active inflammation (anterior lobe): Moderate ([6]; 5 mg/kg (n = 6)): 5 | Chronic active inflammation (anterior lobe): Severe ([6]; 5 mg/kg (n = 6)): 0 | Chronic active inflammation (posterior lobe): Mild ([6]; 5 mg/kg (n = 6)): 3 | Chronic active inflammation (posterior lobe): Minor ([6]; 5 mg/kg (n = 6)): 2 | Chronic active inflammation (posterior lobe): Moderate ([6]; 5 mg/kg (n = 6)): 1 | Chronic active inflammation (posterior lobe): Severe ([6]; 5 mg/kg (n = 6)): 0 | Chronic active inflammation (posterior lobe): Minor ([6]; 5 mg/kg (n = 6), listed as 5555_028): Minor lung inflammation was observed in the posterior lobe in two cases | body weight, Mean ([6]; 5 mg/kg i.p., Day 0): 126.52 | body weight, Mean ([6]; 5 mg/kg i.p., Day 1): 122.87 | body weight, Mean ([6]; 5 mg/kg i.p., Day 2): 120.87 | body weight, Mean ([6]; 5 mg/kg i.p., Day 3): 120.42 | body weight, Mean ([6]; 5 mg/kg i.p., Day 4): 118.52 | body weight, Mean ([6]; 5 mg/kg i.p., Day 5): 119.68 | body weight, Mean ([6]; 5 mg/kg i.p., Day −6): 118.67 | Gross findings of the lung: Mottled fading (number of animals) ([6]; 5 mg/kg): 6 number of animals | Gross findings of the lung: No change (number of animals) ([6]; 5 mg/kg): 0 number of animals | SARS-CoV-2 genome copy number in lung (RT-qPCR), Log10 of Geometric mean (copy number/gram) ([6]; 5 mg/kg, Day 5): 7.72 copy number/gram | SARS-CoV-2 genome copy number in lung vs solvent control ([6]; 25 mg/kg): decreasing trend | Chronic active inflammation (anterior lobe): Mild ([6]; 25 mg/kg (n = 6)): 2 | Chronic active inflammation (anterior lobe): Moderate ([6]; 25 mg/kg (n = 6)): 4 | Chronic active inflammation (anterior lobe): Severe ([6]; 25 mg/kg (n = 6)): 0 | Chronic active inflammation (posterior lobe): Mild ([6]; 25 mg/kg (n = 6)): 6 | Chronic active inflammation (posterior lobe): Minor ([6]; 25 mg/kg (n = 6)): 0 | Chronic active inflammation (posterior lobe): Moderate ([6]; 25 mg/kg (n = 6)): 0 | Chronic active inflammation (posterior lobe): Severe ([6]; 25 mg/kg (n = 6)): 0 | body weight, Mean ([6]; 25 mg/kg i.p., Day 0): 129.63 | body weight, Mean ([6]; 25 mg/kg i.p., Day 1): 126.85 | body weight, Mean ([6]; 25 mg/kg i.p., Day 2): 126.68 | body weight, Mean ([6]; 25 mg/kg i.p., Day 3): 126.22 | body weight, Mean ([6]; 25 mg/kg i.p., Day 4): 124.45 | body weight, Mean ([6]; 25 mg/kg i.p., Day 5): 121.62 | body weight, Mean ([6]; 25 mg/kg i.p., Day −6): 118.95 | Gross findings of the lung: Mottled fading (number of animals) ([6]; 25 mg/kg): 4 number of animals | Gross findings of the lung: No change (number of animals) ([6]; 25 mg/kg): 2 number of animals | Gross findings of the lung: No change (number of animals) ([6]; 25 mg/kg, listed as 5555_028): no lung fading was observed in two cases | SARS-CoV-2 genome copy number in lung (RT-qPCR), Log10 of Geometric mean (copy number/gram) ([6]; 25 mg/kg, Day 5): 8.76 copy number/gram | severity of lung inflammation vs solvent control ([6]; 1, 5, or 25 mg/kg i.p.): The severity of lung inflammation was reduced | weight loss vs solvent control ([6]; hamster, in vivo): the weight loss was suppressed to the same degree at any of the doses | Imax: % (at 500 nM) [1]: 91% | Anti-SARS-CoV-2 activity [2]: 2 | IC50 [3]: 3.5 nM | lung histology (HE staining) ([4]; 30 mg administration group): mild aggregation of cells (*) was observed around blood vessels in almost all lung lobes | weight loss / respiratory symptoms [4]: the rate of weight loss improved significantly (P<0.05) after the fourth day

CCCC[C@H]1C(=O)NC(C)(C)C(=O)N[C@@H](CC2CCCCC2)C(=O)N[C@@H](Cc2ccc(F)cc2)C(=O)N[C@H](CC(=O)O)C(=O)N[C@@H](Cc2ccc(O)cc2)C(=O)N[C@@H](Cc2ccc(O)cc2)C(=O)N[C@@H](CCCNC(N)=O)C(=O)N[C@H](CCCCN)C(=O)N[C@@H](CC2CCCCC2)C(=O)N[C@H](C(=O)N[C@H](CCC(=O)O)C(=O)NCCOCCOCCC(=O)N[C@H](CCCCNC(=O)CCCCCCCCCCC(=O)O)C(N)=O)CSCC(=O)N(C)[C@@H](CCC(=O)O)C(=O)N1C [Peptide 5555_p227] ({CH2CO}-[NMeE][NMeNle][Aib][Cha][Phe(4-F)][dD]YY[Cit][dK][Cha]C[dE][PEG2][dK](C12 diacid)-NH2; thioether N-12)
IC50 (SARS-CoV-2 Wuhan strain): 11.5 nM | IC50 (SARS-CoV-2 Delta strain): 8 nM
